Patent US6914045B2, “Glycopeptide antibiotics” (Wyeth Holdings Corporation, priority 2001, dated 2005)
Values after ≈ are worked out from the molar mass of the structure shown.

Columns and labels:
Assay in all cases: in vitro antibacterial evaluation, MIC by broth dilution
Type in all cases: cell-based
Enterococcus sp. = settings: broth dilution, 18 hours at 35° C.
Summary of the method: (§1)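 Following National Committee for Clinical Laboratory Standards recommendations (M7-A2), susceptibility was measured by dilution in Muller-Hinton II […]. Bacteria were seeded at 5×10^5 CFU/mL against compound concentrations from 64 down to 0.06 μg/mL.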

Staphylococcus sp. = settings: broth dilution, 18 hours at 35° C.; for MIC Staphylococcus aureus (ATCC 29213): strain ATCC 29213; for MIC Staphylococcus aureus (GC 1131): strain GC 1131; for MIC Staphylococcus aureus (GC 3051): strain GC 3051; for MIC Staphylococcus aureus (GC 3053): strain GC 3053; for MIC Staphylococcus aureus (GC 4541): strain GC 4541; for MIC Staphylococcus aureus (GC 4542): strain GC 4542; for MIC Staphylococcus aureus-SMITH (GC 4543): strain GC 4543; for MIC Staphylococcus aureus (GC 4544): strain GC 4544; for MIC Staphylococcus aureus (GC 4545): strain GC 4545; for MIC Staphylococcus haemolyticus (GC 4546): strain GC 4546; for MIC Coagulase Negative Staphylococcus (GC 4547): strain GC 4547; for MIC Coagulase Negative Staphylococcus (GC 4548): strain GC 4548; for MIC Coagulase Negative Staphylococcus (GC 4549): strain GC 4549; for MIC Coagulase Negative Staphylococcus (GC 4551): strain GC 4551
Summary of the method: as §1

Streptococcus sp. = settings: broth dilution, 18 hours at 35° C.
Summary of the method: as §1

Escherichia coli = settings: 18 hours at 35° C.

CC(c1ccccc1)C1NC(=O)CNC(=O)C(CO)NC(=O)C(C(O)C2CNC(=N)N2C2OC(CO)C(O)C(O)C2O)NC(=O)C(C(O)C2CNC(=N)N2)NC(=O)C(Cc2ccc(OC3OC(CO)C(OC4OC5COC6(CCSCC6)OC5C(O)C4O)C(O)C3O)cc2)NC1=O (stereo not shown) [Example 217]
MIC Enterococcus avium (GC 4558) (Enterococcus sp.): 16 µg/mL (≈ 11.5 µM) | MIC Enterococcus faecalis (ATCC 29212) (Enterococcus sp.): 16 µg/mL (≈ 11.5 µM) | MIC Enterococcus faecalis (GC 2242) (Enterococcus sp.): 16 µg/mL (≈ 11.5 µM) | MIC Enterococcus faecalis (GC 2691) (Enterococcus sp.): 16 µg/mL (≈ 11.5 µM) | MIC Enterococcus faecalis (GC 3059) (Enterococcus sp.): 32 µg/mL (≈ 23 µM) | MIC Enterococcus faecalis (GC 4552) (Enterococcus sp.): 16 µg/mL (≈ 11.5 µM) | MIC Enterococcus faecalis (GC 4553) (Enterococcus sp.): 32 µg/mL (≈ 23 µM) | MIC Enterococcus faecalis (GC 4554) (Enterococcus sp.): 32 µg/mL (≈ 23 µM) | MIC Enterococcus faecalis (GC 6189) (Enterococcus sp.): 16 µg/mL (≈ 11.5 µM) | MIC Enterococcus faecium (GC 2243) (Enterococcus sp.): 16 µg/mL (≈ 11.5 µM) | MIC Enterococcus faecium (GC 4556) (Enterococcus sp.): 16 µg/mL (≈ 11.5 µM) | MIC Enterococcus faecium (GC 4557) (Enterococcus sp.): 8 µg/mL (≈ 5.74 µM) | MIC Enterococcus faecalis (ATCC 29212) (Enterococcus sp.; inoculum 5×10^5 CFU/mL, strain ATCC 29212): 16 µg/mL (≈ 11.5 µM) | MIC Enterococcus faecalis (GC 2242) (Enterococcus sp.; inoculum 5×10^5 CFU/mL, strain GC 2242): 16 µg/mL (≈ 11.5 µM) | MIC Enterococcus faecium (GC 2243) (Enterococcus sp.; inoculum 5×10^5 CFU/mL, strain GC 2243): 16 µg/mL (≈ 11.5 µM) | MIC Enterococcus faecalis (GC 2691) (Enterococcus sp.; inoculum 5×10^5 CFU/mL, strain GC 2691): 16 µg/mL (≈ 11.5 µM) | MIC Enterococcus faecalis (GC 3059) (Enterococcus sp.; inoculum 5×10^5 CFU/mL, strain GC 3059): 32 µg/mL (≈ 23 µM) | MIC Enterococcus faecalis (GC 4552) (Enterococcus sp.; inoculum 5×10^5 CFU/mL, strain GC 4552): 16 µg/mL (≈ 11.5 µM) | MIC Enterococcus faecalis (GC 4553) (Enterococcus sp.; inoculum 5×10^5 CFU/mL, strain GC 4553): 32 µg/mL (≈ 23 µM) | MIC Enterococcus faecalis (GC 4554) (Enterococcus sp.; inoculum 5×10^5 CFU/mL, strain GC 4554): 32 µg/mL (≈ 23 µM) | MIC Enterococcus faecium (GC 4556) (Enterococcus sp.; inoculum 5×10^5 CFU/mL, strain GC 4556): 16 µg/mL (≈ 11.5 µM) | MIC Enterococcus faecium (GC 4557) (Enterococcus sp.; inoculum 5×10^5 CFU/mL, strain GC 4557): 8 µg/mL (≈ 5.74 µM) | MIC Enterococcus avium (GC 4558) (Enterococcus sp.; inoculum 5×10^5 CFU/mL, strain GC 4558): 16 µg/mL (≈ 11.5 µM) | MIC Enterococcus faecalis (GC 6189) (Enterococcus sp.; inoculum 5×10^5 CFU/mL, strain GC 6189): 16 µg/mL (≈ 11.5 µM) | MIC Staphylococcus aureus (ATCC 29213) (Staphylococcus sp.): 4 µg/mL (≈ 2.87 µM) | MIC Staphylococcus aureus (GC 1131) (Staphylococcus sp.): 4 µg/mL (≈ 2.87 µM) | MIC Staphylococcus aureus (GC 3051) (Staphylococcus sp.): 4 µg/mL (≈ 2.87 µM) | MIC Staphylococcus aureus (GC 3053) (Staphylococcus sp.): 8 µg/mL (≈ 5.74 µM) | MIC Staphylococcus aureus (GC 4541) (Staphylococcus sp.): 4 µg/mL (≈ 2.87 µM) | MIC Staphylococcus aureus (GC 4542) (Staphylococcus sp.): 4 µg/mL (≈ 2.87 µM) | MIC Staphylococcus aureus-SMITH (GC 4543) (Staphylococcus sp.): 2 µg/mL (≈ 1.44 µM) | MIC Staphylococcus aureus (GC 4544) (Staphylococcus sp.): 8 µg/mL (≈ 5.74 µM) | MIC Staphylococcus aureus (GC 4545) (Staphylococcus sp.): 4 µg/mL (≈ 2.87 µM) | MIC Staphylococcus haemolyticus (GC 4546) (Staphylococcus sp.): 2 µg/mL (≈ 1.44 µM) | MIC Coagulase Negative Staphylococcus (GC 4547) (Staphylococcus sp.): 4 µg/mL (≈ 2.87 µM) | MIC Coagulase Negative Staphylococcus (GC 4548) (Staphylococcus sp.): 1 µg/mL (≈ 0.718 µM) | MIC Coagulase Negative Staphylococcus (GC 4549) (Staphylococcus sp.): 2 µg/mL (≈ 1.44 µM) | MIC Coagulase Negative Staphylococcus (GC 4551) (Staphylococcus sp.): 8 µg/mL (≈ 5.74 µM) | MIC Streptococcus agalactiae (GC 4564) (Streptococcus sp.): 2 µg/mL (≈ 1.44 µM) | MIC Streptococcus pneumoniae (ATCC 6301) (Streptococcus sp.): 1 µg/mL (≈ 0.718 µM) | MIC Streptococcus pneumoniae (GC 1894) (Streptococcus sp.): 0.25 µg/mL (≈ 0.179 µM) | MIC Streptococcus pneumoniae (GC 4565) (Streptococcus sp.): 0.5 µg/mL (≈ 0.359 µM) | MIC Streptococcus pyogenes (GC 4563) (Streptococcus sp.): 1 µg/mL (≈ 0.718 µM) | MIC Streptococcus pneumoniae (ATCC 6301) (Streptococcus sp.; inoculum 5×10^5 CFU/mL, strain ATCC 6301): 1 µg/mL (≈ 0.718 µM) | MIC Streptococcus pneumoniae (GC 1894) (Streptococcus sp.; inoculum 5×10^5 CFU/mL, strain GC 1894): 0.25 µg/mL (≈ 0.179 µM) | MIC Streptococcus pyogenes (GC 4563) (Streptococcus sp.; inoculum 5×10^5 CFU/mL, strain GC 4563): 1 µg/mL (≈ 0.718 µM) | MIC Streptococcus agalactiae (GC 4564) (Streptococcus sp.; inoculum 5×10^5 CFU/mL, strain GC 4564): 2 µg/mL (≈ 1.44 µM) | MIC Streptococcus pneumoniae (GC 4565) (Streptococcus sp.; inoculum 5×10^5 CFU/mL, strain GC 4565): 0.5 µg/mL (≈ 0.359 µM) | MIC Escherichia coli (ATCC 25922) (Escherichia coli): 64 µg/mL (≈ 45.9 µM) | MIC Escherichia coli (GC 4559) (Escherichia coli): 32 µg/mL (≈ 23 µM) | MIC Escherichia coli (GC 4560) (Escherichia coli): 2 µg/mL (≈ 1.44 µM)

CC(C1CCCCC1)C1NC(=O)CNC(=O)C(CO)NC(=O)C(C(O)C2CNC(=N)N2C2OC(CO)C(O)C(O)C2O)NC(=O)C(C(O)C2CNC(=N)N2)NC(=O)C(C[C@H]2CC[C@@H](O)CC2)NC1=O (stereo partly drawn) [Example 54, Cyclo[3-(syn-4-hydroxycyclohexyl)alanyl-3-(2-ininoimidazolidin-4-yl)seryl-3-(3-hexopyranosyl-2-iminoimidazolidin-4-yl)serylserylglycyl-3-cyclohexyl-2-aminobutanoyl]]
MIC Enterococcus avium (GC 4558) (Enterococcus sp.; Enterococcus avium (GC 4558)): 128 µg/mL (≈ 130 µM) | MIC Enterococcus faecalis (ATCC 29212) (Enterococcus sp.; Enterococcus faecalis (ATCC 29212)): >128 µg/mL | MIC Enterococcus faecalis (GC 4552) (Enterococcus sp.; Enterococcus faecalis (GC 4552)): >128 µg/mL | MIC Enterococcus faecalis (GC 4553) (Enterococcus sp.; Enterococcus faecalis (GC 4553)): >128 µg/mL | MIC Enterococcus faecalis (GC 4554) (Enterococcus sp.; Enterococcus faecalis (GC 4554)): >128 µg/mL | MIC Enterococcus faecalis (GC 6189) (Enterococcus sp.; Enterococcus faecalis (GC 6189)): >128 µg/mL | MIC Enterococcus faecium (GC 2243) (Enterococcus sp.; Enterococcus faecium (GC 2243)): >128 µg/mL | MIC Enterococcus faecium (GC 4556) (Enterococcus sp.; Enterococcus faecium (GC 4556)): >128 µg/mL | MIC Enterococcus faecium (GC 4557) (Enterococcus sp.; Enterococcus faecium (GC 4557)): 128 µg/mL (≈ 130 µM) | MIC Enterococcus faecalis (ATCC 29212) (Enterococcus sp.; strain ATCC 29212): >128 µg/mL | MIC Enterococcus faecalis (GC 2242) (Enterococcus sp.; strain GC 2242): >128 µg/mL | MIC Enterococcus faecium (GC 2243) (Enterococcus sp.; strain GC 2243): >128 µg/mL | MIC Enterococcus faecalis (GC 2691) (Enterococcus sp.; strain GC 2691): >128 µg/mL | MIC Enterococcus faecalis (GC 3059) (Enterococcus sp.; strain GC 3059): >128 µg/mL | MIC Enterococcus faecalis (GC 4552) (Enterococcus sp.; strain GC 4552): >128 µg/mL | MIC Enterococcus faecalis (GC 4553) (Enterococcus sp.; strain GC 4553): >128 µg/mL | MIC Enterococcus faecalis (GC 4554) (Enterococcus sp.; strain GC 4554): >128 µg/mL | MIC Enterococcus faecium (GC 4556) (Enterococcus sp.; strain GC 4556): >128 µg/mL | MIC Enterococcus faecium (GC 4557) (Enterococcus sp.; strain GC 4557): 128 µg/mL (≈ 130 µM) | MIC Enterococcus avium (GC 4558) (Enterococcus sp.; strain GC 4558): 128 µg/mL (≈ 130 µM) | MIC Enterococcus faecalis (GC 6189) (Enterococcus sp.; strain GC 6189): >128 µg/mL | MIC Staphylococcus aureus (ATCC 29213) (Staphylococcus sp.): >128 µg/mL | MIC Staphylococcus aureus (GC 1131) (Staphylococcus sp.): >128 µg/mL | MIC Staphylococcus aureus (GC 3051) (Staphylococcus sp.): >128 µg/mL | MIC Staphylococcus aureus (GC 3053) (Staphylococcus sp.): >128 µg/mL | MIC Staphylococcus aureus (GC 4541) (Staphylococcus sp.): >128 µg/mL | MIC Staphylococcus aureus (GC 4542) (Staphylococcus sp.): >128 µg/mL | MIC Staphylococcus aureus-SMITH (GC 4543) (Staphylococcus sp.): >128 µg/mL | MIC Staphylococcus aureus (GC 4544) (Staphylococcus sp.): >128 µg/mL | MIC Staphylococcus aureus (GC 4545) (Staphylococcus sp.): >128 µg/mL | MIC Staphylococcus haemolyticus (GC 4546) (Staphylococcus sp.): >128 µg/mL | MIC Coagulase Negative Staphylococcus (GC 4547) (Staphylococcus sp.): >128 µg/mL | MIC Coagulase Negative Staphylococcus (GC 4548) (Staphylococcus sp.): >128 µg/mL | MIC Coagulase Negative Staphylococcus (GC 4549) (Staphylococcus sp.): >128 µg/mL | MIC Coagulase Negative Staphylococcus (GC 4551) (Staphylococcus sp.): >128 µg/mL | MIC Streptococcus pneumoniae (ATCC 6301) (Streptococcus sp.; strain ATCC 6301): >128 µg/mL | MIC Streptococcus pneumoniae (GC 1894) (Streptococcus sp.; strain GC 1894): 128 µg/mL (≈ 130 µM) | MIC Streptococcus pyogenes (GC 4563) (Streptococcus sp.; strain GC 4563): >128 µg/mL | MIC Streptococcus agalactiae (GC 4564) (Streptococcus sp.; strain GC 4564): >128 µg/mL | MIC Streptococcus pneumoniae (GC 4565) (Streptococcus sp.; strain GC 4565): >128 µg/mL | MIC Escherichia coli (ATCC 25922) (Escherichia coli; strain ATCC 25922, broth dilution): >128 µg/mL | MIC Escherichia coli (GC 4559) (Escherichia coli; strain GC 4559, broth dilution): >128 µg/mL | MIC Escherichia coli (GC 4560) (Escherichia coli; strain GC 4560, broth dilution): >128 µg/mL
